# Measured values: patent US10478419B2, “Use of daphnoretin in prevention of tissue or organ transplant rejection or graft-versus-host-disease” (MacKay Memorial Hospital, priority 2017, dated 2019)
# Experiments:
# [1] = test system: human monocyte-derived dendritic cells (DCs); assay: Number of viable DCs, trypan blue dye exclusion test; format: cell-based; conditions: daphnoretin 1.1, 3.3, 10 or 30 μM, FIG. 3
# Protocol: (§1) Human peripheral blood mononuclear cells were collected from healthy donors and were isolated using Histopaque (Amersham Pharmacia Biotech, Piscataway, N.J., USA) for density gradient centrifugation. Erythrocytes were lysed by using 0.9% ammonium chloride incubated for 3 min at 37° C. Thereafter, CD14^+ monocytes were purified by gradient magnetic sorting method using miniMACS system with anti-CD14 microbeads (Miltenyi Biotec, Bergisch Bladbach, Germany). After incubation at 37° C. for 2 hr, nonadherent cells were removed and adherent cells were collected. The purity of isolated CD14^+ monocytes was over 90% by using flow cytometric analysis. Immature DCs were generated from CD14^+ monocytes by culture in RPMI 1640 medium supplemented with 10% fetal calf serum, 100 ng/mL GM-CSF (Schering-Plough, Munich, Germany), 50 ng/mL IL-4 (R&D Systems, Minneapolis, Minn., USA), and daphnoretin (0, 1.1, 3.3, 10 or 30 μM) every 3 days for 6 days in a humidified 5% CO2 incubator. To trigger maturation of DCs, immature DCs were incubated with lipopolysaccharide (LPS) (5 ng/mL) (Sigma, St. Louis, Mo., USA) and/or a combination of cytokines including 5 ng/mL TNF-α, 5 ng/mL IL-1β, 15 ng/mL IL-6 (R&D Systems, Minneapolis, Minn., USA), and 1 μg/mL prostaglandin E2 (PGE2) (Sigma-Aldrich, St. Louis, Mo., USA) for 24 hr. […]
# [2] = test system: human monocyte-derived dendritic cells (DCs); assay: Flow cytometric analysis of surface markers on monocyte-derived DCs; format: cell-based
# Protocol: Human peripheral blood mononuclear cells were collected from healthy donors and were isolated using Histopaque (Amersham Pharmacia Biotech, Piscataway, N.J., USA) for density gradient centrifugation. Erythrocytes were lysed by using 0.9% ammonium chloride incubated for 3 min at 37° C. Thereafter, CD14^+ monocytes were purified by gradient magnetic sorting method using miniMACS system with anti-CD14 microbeads (Miltenyi Biotec, Bergisch Bladbach, Germany). After incubation at 37° C. for 2 hr, nonadherent cells were removed and adherent cells were collected. The purity of isolated CD14^+ monocytes was over 90% by using flow cytometric analysis. Immature DCs were generated from CD14^+ monocytes by culture in RPMI 1640 medium supplemented with 10% fetal calf serum, 100 ng/mL GM-CSF (Schering-Plough, Munich, Germany), 50 ng/mL IL-4 (R&D Systems, Minneapolis, Minn., USA), and daphnoretin (0, 1.1, 3.3, 10 or 30 μM) every 3 days for 6 days in a humidified 5% CO2 incubator. To trigger maturation of DCs, immature DCs were incubated with lipopolysaccharide (LPS) (5 ng/mL) (Sigma, St. Louis, Mo., USA) and/or a combination of cytokines including 5 ng/mL TNF-α, 5 ng/mL IL-1β, 15 ng/mL IL-6 (R&D Systems, Minneapolis, Minn., USA), and 1 μg/mL prostaglandin E2 (PGE2) (Sigma-Aldrich, St. Louis, Mo., USA) for 24 hr. It has been shown that monocyte-conditioned medium containing a combination of pro-inflammatory cytokines (i.e., TNF-α, IL-1, IL-6, and PGE2) or LPS triggers efficient DCs maturation. Daphnoretin was purchased from Sigma (St. Louis, Mo., USA) and dissolved in PBS as a stock solution (0.5 mg/mL). Dual-color immunostain was performed using fluorescein isothiocyanate (FITC)- and phycoerythrin (PE)-conjugated monoclonal antibodies (mAbs). The mouse anti-human mAbs IgG1:FITC/mouse IgG1:PE, and appropriate isotype controls were purchased from Serotec (Oxford, UK) and used for characterization of DCs. The isotype controls used in our study included anti-CD11c and anti-CD14 (for IgG-FITC), anti-CD1a-PE, anti-CD80-PE, anti-CD83-PE, anti-HLA-DR-PE and anti-DC-SIGN-PE. Cells were incubated with saturating concentrations of PE-conjugated mAbs and primary CD11c mAbs followed by IgG-FITC at 4° C. for 30 min. After washing twice with PBS, 1×10^6 cells were applied to a FACS caliber flow cytometer (BD Biosciences, San Jose, Calif., USA). Data were collected and analyzed using CellQuest Software (BD Biosciences, San Jose, Calif., USA).
# [3] = test system: acute rejection of skin allografts; assay: Skin allograft transplantation model
# Excerpt: Male C57BL/6(H-2^b) and BALB/6(H-2^d) mice aged 6-8 weeks were purchased from Animal Resource Center of National Science Council of Taiwan (Taipei, Taiwan) and maintained in a room with 12 hr light/dark cycles. Standard laboratory chow and water were available ad libitum. […] Briefly, a 2×1 cm full-thickness skin graft was harvested from the donor mouse and sutured to the graft bed of a recipient mouse. The skin graft rejection was defined as necrosis of more than 80% of the epidermal surface. Daphnoretin (0.5 or 1.0 mg/Kg) and rapamycin (3.0 mg/Kg) were administered intraperitoneally daily until rejection was observed. Body weight was recorded and the white blood cell count was estimated by an automatic counter.
# [4] = test system: phosphorylated c-Jun N-terminal kinase (p-JNK); assay: Immunoblot analysis of phosphorylated JNK in DCs; format: cell-based, human; conditions: FIG. 5 panels A and B
# Protocol: as §1
# [5] = test system: Ehrlich ascites tumor, cervical cancer and lung adenocarcinoma; conditions: cited from earlier work
# protein kinase C (PKC) = conditions: human hepatoma Hep3B cells; cited from earlier work
# [6] = test system: CD4+CD45RA+ naive T cells; assay: Allogenic naive T cell proliferation stimulated by matured DCs (BrdU); format: cell-based, human; conditions: mature DCs : CD4+CD45RA+ cells 1:10 or 1:30; FIG. 4
# Excerpt: Nonadherent cells from culture of isolated mononuclear cells were used to purify naïve T cells. Naïve T cells were enriched with a CD4^+CD45RA^+T cell isolation kit (Miltenyi Biotec) using a MIniMACS system with negative selection technique. Monocyte-derived DCs were harvested and irradiated (3,000 cGy in a single fraction) with 6 MeV X-ray generated by linear accelerator (Clinac® 1800, Varian Associates Inc., CA) at a dose of 4.0 Gy/min. Full electron equilibrium was ensured for each fraction by a parallel plate PR-60C ionization chamber (Capintel Inc., Ramsey, N.J., USA). […] The cells were then collected and the incorporated BrdU was detected using flow cytometry to estimate T cell proliferation.
# [7] = test system: human monocyte-derived dendritic cells (DCs); assay: Morphological observation of monocyte-derived DCs (differentiation); format: cell-based
# Protocol: as §1
# [8] = test system: hepatitis B surface antigen; conditions: human hepatoma Hep3B cells; cited from earlier work
SMILES,cell viability (cell numbers of mature and immature DCs) [1],expression of CD1a ([2]; FIG. 2 panel A),expression of macrophage marker CD14 ([2]; FIG. 2 panel B),expression of CD40 ([2]; FIG. 2 panel C),expression of CD83 ([2]; FIG. 2 panel D),expression of DC-SIGN ([2]; FIG. 2 panel E),"fraction of the survived skin graft ([3]; daphnoretin 1.0 mg/Kg/day intraperitoneally, FIG. 6 panel A)","body weight of the recipient mouse ([3]; daphnoretin dose employed, vs control, FIG. 6 panel B)","white blood cell count of the recipient mouse ([3]; daphnoretin dose employed, vs control, FIG. 6 panel C)",level of p-JNK in DCs ([4]; DCs treated with daphnoretin),anti-cancer activity [5],protein kinase C (PKC) activity and intracellular level (protein kinase C (PKC)),proliferation of DCs stimulated T cells [6],"differentiation process of DCs (morphology, formation of dendrites) ([7]; daphnoretin 1.1, 3.3, 10 or 30 μM, FIG. 1)","morphology of DCs ([7]; treated with daphnoretin and anisomycin, FIG. 5 panel C)",expression of hepatitis B surface antigen [8],"level of p-JNK in DCs treated with daphnoretin, effect of added JNK activator ([4]; co-incubated with daphnoretin)"
"COc1cc2cc(Oc3ccc4ccc(=O)oc4c3)c(=O)oc2cc1O [daphnoretin, 7-hydroxy-6-methoxy-3,7′-dicoumaryl ether]",reduced the cell numbers of both mature and immature DCs in dose-dependent manner,suppressed,unaffected,suppressed,suppressed,suppressed,even higher than that treated of the rapamycin-treated mouse,did not vary significantly,did not vary significantly,decrease,possess anti-cancer activity,inactivating protein kinase C (PKC),suppressed,suppressed,remained rounded and without the formation of any dendrites,suppressing the expression of hepatitis B surface antigen,
"COc1ccc(C[C@H]2NC[C@H](O)[C@H]2OC(C)=O)cc1 [anisomycin, reference compound]",,,,,,,,,,,,,,,,,could reverse this decrease
